From PMC12528727 (Nature Communications, 2025)
Where no end group is shown, it is not given here.

Columns and labels:
[1] = test system: Candida albicans ATCC10231; assay: Antifungal activity assay at 128 µM; type: cell-based; settings: 128 µM peptide; growth curves (Supplementary Fig. 11)
NIH/3T3 cells = assay: Cytotoxicity assay; type: cell-based, murine; settings: 128 µM peptide, 24 h, CCK-8, absorbance 450 nm, n = 3
[2] = test system: Micrococcus luteus ATCC4698; assay: Antibacterial activity screen at 128 µM; settings: 128 µM peptide
Bacillus subtilis WB600 = assay: Antibacterial activity screen at 128 µM; settings: 128 µM peptide
S. aureus 09057 = settings: two-fold dilutions 128 µM to 1 µM; CaMHB, 37 °C, 16 h, OD600; n = 3
E. coli z44 = settings: two-fold dilutions 128 µM to 1 µM; CaMHB, 37 °C, 16 h, OD600; n = 3
[3] = ABTS+ radical scavenging assay; type: biochemical; settings: 1 mg/mL c_AMPs

For CLCGGKGKKLGKG [C4], the “time for which growth of C. albicans ATCC10231 was inhibited post treatment” value [1] was “up to 2 h”.

With GKGAKKGLKGLKG [B3] the cytotoxicity rate (NIH/3T3 cells) was 6.97%.

For GLCGKGGKCCCGC [C1], the “inhibition of M. luteus ATCC4698 growth” value [2] was “completely inhibit” and the “effect on B. subtilis WB600” value (Bacillus subtilis WB600) was “negatively impacted”.

With IRPWRKPRWPWKR [D2] the “MIC, S. aureus 09057” value (S. aureus 09057) was 32 µM and the “minimum inhibitory concentration (MIC), E. coli z44” value (E. coli z44) was 8 µM.

In the case of KKGLGGKLLACKG [A3], the “inhibition of M. luteus ATCC4698 growth” value [2] is reported as “completely inhibit”, the “ABTS^+ free radical scavenging rate” value [3] is reported as no less than 90% and the “time for which growth of B. subtilis WB600 was halted post treatment” value (Bacillus subtilis WB600; growth curves (Supplementary Fig. 11), no inhibition at 16 h) is reported as “up to 3 h”.

In the case of KKPRPWPWKRRKK [D4], the “ABTS^+ free radical scavenging rate” value [3] is reported as 72%.

In the case of KLKGLLGGKKKLK [A1], the “inhibition of M. luteus ATCC4698 growth” value [2] is reported as “completely inhibit”.
